DBAASP
In brackets after ≈: the same amount, converted by molar mass.

What was measured:
Experiment in all cases: ≥ marks a high value that may be exact or a test limit, other limits are often not marked, values filed in µg/mL are converted to µM
[1] = tested on: Escherichia coli ATCC 25922
[2] = tested on: Staphylococcus aureus ATCC 29213
[3] = tested on: Pseudomonas aeruginosa ATCC 27853
Escherichia coli = tested on: Escherichia coli
[4] = tested on: Staphylococcus aureus ATCC 25923

Row | Structure (SMILES) | MIC [1] [µM] | MIC [4] [µM] | further results
1 | CC[C@H](C)[C@H](NC(=O)[C@H](CC(=O)O)NC(=O)[C@H](CC(C)C)NC(=O)[C@@H](NC(=O)CN)C(C)C)C(=O)N[C@@H](CC(C)C)C(=O)N[C@@H](CCCCN)C(=O)NCC(=O)N[C@@H](C)C(=O)N[C@@H](C)C(=O)N[C@@H](CCCCN)C(=O)N[C@@H](CC(=O)O)C(=O)N[C@@H](CC(C)C)C(=O)N[C@@H](C)C(=O)NCC(=O)N[C@@H](Cc1cnc[nH]1)C(=O)O [GVLDILKGAAKDLAGH] | 10.1 (≈ 15.9 µg/mL) |  | MIC [2]: 40.5 µM (≈ 63.9 µg/mL)
2 | CC[C@H](C)[C@H](NC(=O)CNC(=O)[C@H](CCSC)NC(=O)[C@H](CCCCN)NC(=O)[C@H](C)NC(=O)[C@H](CC(C)C)NC(=O)[C@H](CCCCN)NC(=O)[C@H](CCC(=O)O)NC(=O)[C@H](CC(C)C)NC(=O)CNC(=O)[C@H](CCCCN)NC(=O)[C@H](CC(C)C)NC(=O)[C@@H](NC(=O)[C@H](CO)NC(=O)[C@H](CC(C)C)NC(=O)[C@H](C)N)[C@@H](C)CC)C(=O)N[C@@H](C)C(=O)N[C@@H](CC(C)C)C(=O)N[C@H](C(=O)N[C@@H](CC(N)=O)C(=O)N[C@H]1CSSC[C@@H](C(=O)O)NC(=O)[C@H](CCCCN)NC(=O)[C@H](CCCCN)NC(=O)[C@H]([C@@H](C)O)NC(=O)[C@H](C)NC(=O)[C@H](CCCCN)NC1=O)[C@@H](C)O [ALSILKGLEKLAKMGIALTNCKATKKC] | 28 (≈ 79.7 µg/mL) |  | 
3 | CC(=O)N[C@@H](CCCCN)C(=O)N[C@@H](CC(C)C)C(=O)N[C@@H](CC(C)C)C(=O)N[C@@H](CCCCN)C(=O)N1CCC[C@H]1C(=O)N[C@@H](CC(C)C)C(=O)N[C@@H](CCCCN)C(=O)N[C@@H](CCCCN)C(=O)N[C@@H](CC(C)C)C(=O)N[C@@H](CC(C)C)C(=O)N[C@@H](CCCCN)C(=O)N[C@@H](CC(C)C)C(=O)N[C@@H](CC(C)C)C(=O)N[C@@H](CCCCN)C(N)=O [KLLKPLKKLLKLLK] | 20 (≈ 34.3 µg/mL) |  | MIC [2]: 28.3 µM (≈ 48.6 µg/mL)
4 | CC[C@H](C)[C@H](NC(=O)[C@@H]1CCCN1C(=O)[C@H](CCCCN)NC(=O)[C@H](CC(C)C)NC(=O)[C@H](C)NC(=O)[C@@H](NC(=O)[C@@H](NC(=O)[C@H](CC(C)C)NC(=O)[C@@H](NC(=O)[C@H](CCCCN)NC(=O)[C@H](CCCCN)NC(=O)[C@H](C)NC(=O)[C@H](C)NC(=O)[C@H](CO)NC(=O)[C@@H](NC(=O)[C@H](CC(C)C)NC(=O)[C@H](CCCCN)NC(=O)[C@H](CCCCN)NC(=O)[C@H](CC(C)C)NC(=O)[C@H](Cc1ccccc1)NC(=O)[C@H](CCCCN)NC(=O)[C@H](CCCCN)NC(=O)[C@H](Cc1c[nH]c2ccccc12)NC(=O)[C@@H](N)CCCCN)[C@@H](C)O)C(C)C)[C@@H](C)O)[C@@H](C)O)C(=O)N[C@@H](CO)C(=O)N[C@@H](CO)C(=O)O [KWKKFLKKLTSAAKKVLTTALKPISS] |  |  | MIC [3]: 2 µM (≈ 5.83 µg/mL)
5 | CC(C)C[C@H](NC(=O)[C@H](Cc1ccccc1)NC(=O)[C@@H]1CCCN1C(=O)[C@H](Cc1ccc(O)cc1)NC(=O)[C@H](Cc1c[nH]c2ccccc12)NC(=O)[C@H](Cc1ccc(O)cc1)NC(=O)[C@@H]1CCCN1C(=O)[C@H](Cc1ccccc1)NC(=O)[C@H](CCCN=C(N)N)NC(=O)[C@H](CCCN=C(N)N)NC(=O)[C@@H](N)C(C)C)C(=O)N[C@@H](CCCN=C(N)N)C(=O)N[C@@H](CCCN=C(N)N)C(N)=O [VRRFPYWYPFLRR] | 16 (≈ 29.7 µg/mL) |  | 
6 | CC(C)C[C@H](NC(=O)[C@H](CCCN=C(N)N)NC(=O)CNC(=O)CNC(=O)[C@@H](N)CCCN=C(N)N)C(=O)N[C@H]1CSSC[C@@H](C(=O)N[C@@H](CCC(=O)O)C(=O)O)NC(=O)[C@H](C(C)C)NC(=O)[C@@H]2CSSC[C@H](NC(=O)[C@H](Cc3ccc(O)cc3)NC1=O)C(=O)N[C@@H](CCCN=C(N)N)C(=O)N[C@@H](CCCN=C(N)N)C(=O)N[C@@H](CCCN=C(N)N)C(=O)N[C@@H](Cc1ccccc1)C(=O)N2 [RGGRLCYCRRRFCVCE] |  |  | MIC (Escherichia coli): 0.303 µM (≈ 0.599 µg/mL)
7 | CC(C)C[C@H](NC(=O)[C@H](Cc1ccccc1)NC(=O)[C@@H]1CCCN1C(=O)[C@H](C)NC(=O)[C@H](C)NC(=O)[C@H](C)NC(=O)[C@@H]1CCCN1C(=O)[C@H](Cc1ccccc1)NC(=O)[C@H](CCCN=C(N)N)NC(=O)[C@H](CCCN=C(N)N)NC(=O)[C@@H](N)C(C)C)C(=O)N[C@@H](CCCN=C(N)N)C(=O)N[C@@H](CCCN=C(N)N)C(N)=O [VRRFPAAAPFLRR] | > 128 |  | 
8 | CC[C@H](C)[C@H](NC(=O)[C@@H](NC(=O)[C@H](CCCCN)NC(=O)[C@H](CC(C)C)NC(=O)[C@H](CC(C)C)NC(=O)CN)C(C)C)C(=O)N[C@@H](CCCCN)C(=O)N[C@H](C(=O)N[C@@H](CC(C)C)C(=O)N[C@@H](CC(C)C)C(N)=O)[C@@H](C)O [GLLKVIKTLL] | 2.73 (≈ 3 µg/mL) | 2.73 (≈ 3 µg/mL) | 
9 | CC[C@H](C)[C@H](NC(=O)[C@H](CCCN=C(N)N)NC(=O)[C@H](CCCCN)NC(=O)[C@H](CC(C)C)NC(=O)[C@H](CC(C)C)NC(=O)CN)C(N)=O [GLLKRI] | > 54.4 | > 54.4 | 
10 | C[C@H](NC(=O)[C@H](Cc1c[nH]c2ccccc12)NC(=O)[C@H](CCCN=C(N)N)NC(=O)[C@H](Cc1c[nH]c2ccccc12)NC(=O)[C@H](C)NC(=O)[C@H](CCCN=C(N)N)NC(=O)[C@@H](N)Cc1ccc(O)cc1)C(=O)N[C@@H](Cc1c[nH]c2ccccc12)C(=O)N[C@@H](CCCN=C(N)N)C(=O)N[C@@H](Cc1c[nH]c2ccccc12)C(=O)N[C@@H](CCCN=C(N)N)C(N)=O [YRAWRWAWRWR] | 5.91 (≈ 9.99 µg/mL) | 1.48 (≈ 2.5 µg/mL) | MIC [3]: 11.8 µM (≈ 20 µg/mL)
11 | NC(=O)[C@H](Cc1c[nH]c2ccccc12)NC(=O)[C@H](CCCN=C(N)N)NC(=O)[C@H](Cc1c[nH]c2ccccc12)NC(=O)[C@H](CCCN=C(N)N)NC(=O)[C@H](Cc1c[nH]c2ccccc12)NC(=O)[C@@H](N)Cc1ccc(O)cc1 [YWRWRW] | 19 (≈ 20 µg/mL) | 9.5 (≈ 9.99 µg/mL) | MIC [3]: 47.5 µM (≈ 50 µg/mL)
12 | CC(C)[C@H](NC(=O)[C@@H]1CCCN1C(=O)[C@@H](N)Cc1ccccc1)C(=O)N[C@H](C(=O)N[C@@H](Cc1c[nH]c2ccccc12)C(=O)N[C@@H](CCCN=C(N)N)C(=O)N[C@@H](Cc1c[nH]c2ccccc12)C(=O)N[C@@H](Cc1c[nH]c2ccccc12)C(=O)N[C@@H](CCCN=C(N)N)C(=O)N[C@@H](Cc1c[nH]c2ccccc12)C(=O)N[C@@H](Cc1c[nH]c2ccccc12)C(=O)N[C@@H](CCCN=C(N)N)C(=O)NCC(N)=O)[C@@H](C)O [FPVTWRWWRWWRG] | 11.3 (≈ 21.7 µg/mL) |  | 
13 | CC(=O)N[C@@H](CC(C)C)C(=O)N[C@@H](CCCCN)C(=O)N[C@@H](CCCCN)C(=O)N[C@@H](CC(C)C)C(=O)N[C@@H](CC(C)C)C(=O)N[C@@H](CCCCN)C(=O)N[C@@H](CC(C)C)C(=O)N[C@@H](CC(C)C)C(=O)N[C@@H](CCCCN)C(=O)N1CCC[C@H]1C(=O)N[C@@H](CC(C)C)C(=O)N[C@@H](CC(C)C)C(=O)N[C@@H](CCCCN)C(=O)N[C@@H](CC(C)C)C(N)=O [LKKLLKLLKPLLKL] | 5 (≈ 8.51 µg/mL) |  | MIC [2]: 2.5 µM (≈ 4.26 µg/mL)
14 | CC[C@H](C)[C@H](NC(=O)[C@H](CCCN=C(N)N)NC(=O)[C@H](CCCCN)NC(=O)[C@H](CC(C)C)NC(=O)[C@H](CC(C)C)NC(=O)CN)C(=O)N[C@@H](CCCCN)C(=O)N[C@@H](CC(C)C)C(=O)N[C@@H](CC(C)C)C(=O)N[C@@H](CC(C)C)C(N)=O [GLLKRIKLLL] | 11.1 (≈ 13 µg/mL) | 6 (≈ 6.99 µg/mL) | 
15 | CC(C)C[C@H](NC(=O)[C@H](C)NC(=O)[C@H](CCCCN)NC(=O)[C@H](C)NC(=O)[C@H](C)NC(=O)CNC(=O)[C@H](CCCCN)NC(=O)[C@H](CC(C)C)NC(=O)[C@H](CC(C)C)NC(=O)[C@H](CC(=O)O)NC(=O)[C@H](CCCCN)NC(=O)[C@H](Cc1c[nH]c2ccccc12)NC(=O)CN)C(=O)N[C@H](C(=O)N[C@@H](CCCCN)C(=O)N[C@H](C(=O)N[C@H](C(=O)N[C@@H](Cc1ccccc1)C(N)=O)C(C)C)[C@@H](C)O)C(C)C [GWKDLLKGAAKALVKTVF] | 3 (≈ 5.83 µg/mL) |  | 
16 | CC[C@H](C)[C@H](NC(=O)[C@H](CCCN=C(N)N)NC(=O)[C@H](CCCCN)NC(=O)[C@H](CC(C)C)NC(=O)[C@H](CC(C)C)NC(=O)CN)C(=O)N[C@@H](CCCCN)C(=O)N[C@@H](CC(N)=O)C(=O)N[C@@H](CC(C)C)C(=O)N[C@@H](CC(C)C)C(N)=O [GLLKRIKNLL] | 18.8 (≈ 22 µg/mL) | 10.3 (≈ 12 µg/mL) | 
17 | CC[C@H](C)[C@H](NC(=O)[C@H](C)NC(=O)CNC(=O)[C@H](C)NC(=O)[C@H](CCCCN)NC(=O)[C@H](CO)NC(=O)[C@H](C)NC(=O)[C@H](CCSC)NC(=O)CN)C(=O)N[C@@H](C)C(=O)NCC(=O)N[C@@H](CCCCN)C(=O)N[C@H](C(=O)N[C@@H](C)C(=O)N[C@@H](CCCCN)C(=O)N[C@H](C(=O)N[C@@H](C)C(=O)N[C@@H](Cc1c[nH]c2ccccc12)C(=O)N[C@@H](CCCCN)C(=O)N[C@@H](C)C(=O)N[C@@H](CC(C)C)C(=O)NCC(=O)NCC(=O)N[C@@H](C)C(N)=O)C(C)C)[C@@H](C)CC [GMASKAGAIAGKIAKVAWKALGGA] | 12.5 (≈ 27.9 µg/mL) |  | 
18 | CC[C@H](C)[C@H](NC(=O)CNC(=O)[C@H](CCCCN)NC(=O)[C@@H](NC(=O)[C@H](CC(C)C)NC(=O)[C@H](CO)NC(=O)CNC(=O)[C@H](CC(C)C)NC(=O)CNC(=O)[C@H](C)NC(=O)[C@H](CCCCN)NC(=O)[C@H](Cc1ccccc1)NC(=O)[C@@H](NC(=O)[C@H](CCC(=O)O)NC(=O)[C@H](CCCCN)NC(=O)[C@H](CC(C)C)NC(=O)CN)[C@@H](C)CC)C(C)C)C(=O)N[C@@H](C)C(=O)N[C@@H](C)C(=O)N[C@@H](Cc1cnc[nH]1)C(=O)N[C@H](C(=O)N[C@@H](C)C(=O)N[C@@H](CC(N)=O)C(N)=O)C(C)C [GLKEIFKAGLGSLVKGIAAHVAN] | 25 (≈ 57.3 µg/mL) | 200 (≈ 459 µg/mL) | 
19 | C[C@H](NC(=O)[C@H](Cc1c[nH]c2ccccc12)NC(=O)[C@H](CCCN=C(N)N)NC(=O)[C@H](CCCN=C(N)N)NC(=O)[C@H](C)NC(=O)[C@H](CCCCN)NC(=O)[C@@H](N)Cc1ccc(O)cc1)C(=O)N[C@@H](Cc1c[nH]c2ccccc12)C(=O)N[C@@H](CCCN=C(N)N)C(=O)N[C@@H](Cc1c[nH]c2ccccc12)C(=O)N[C@@H](CCCCN)C(=O)O [YKARRWAWRWK] | 12.4 (≈ 20 µg/mL) | 12.4 (≈ 20 µg/mL) | MIC [3]: 31.1 µM (≈ 50 µg/mL)
